Here are results for 1 molecule from ChEMBL document CHEMBL4765306, “Design, synthesis and biological evaluation of novel naturally-inspired multifunctional molecules for the management of Alzheimer's disease” (Eur J Med Chem, 2020).

The nature of data set [1]: Acute toxicity in Swiss albino mouse assessed as liver damage at 500 mg/kg, po administered once and observed after 14 days by microscopic analysis. The format is organism-based. As to conditions: in vivo, 336 h, time 14 day.
The subject of data set [2] is Mus musculus. The experiment in a line: Ex vivo inhibition of AChE in brain of scopolamine-induced Swiss albino mouse model of amnesia at 6.25 to 25 mg/kg, po administered for 7 days and observed after 30 mins before scopolamine treatment and measured after 15 mins using acetylthiocholine iodide as substrate by Ellman's method. In kind it is functional, organism-based. The conditions noted are these: dose 6.25-25 mg/kg, time 7.0 day. On the technique in general: DTNB colorimetry detects thiols as they appear.

Data set [3] deals with T1, Acetylcholinesterase (Homo sapiens, UniProt P22303). As to the kind of experiment: Non-competitive inhibition of recombinant human erythrocyte AChE at 1 to 10 uM using acetylthiocholine iodide as substrate preincubated for 30 mins followed by substrate addition and measured after 30 mins by Lineweaver-burk plot analysis. The conditions noted are these: dose 1-10 µM, time 60.0 min.
T1 sequence (P22303 whole entry): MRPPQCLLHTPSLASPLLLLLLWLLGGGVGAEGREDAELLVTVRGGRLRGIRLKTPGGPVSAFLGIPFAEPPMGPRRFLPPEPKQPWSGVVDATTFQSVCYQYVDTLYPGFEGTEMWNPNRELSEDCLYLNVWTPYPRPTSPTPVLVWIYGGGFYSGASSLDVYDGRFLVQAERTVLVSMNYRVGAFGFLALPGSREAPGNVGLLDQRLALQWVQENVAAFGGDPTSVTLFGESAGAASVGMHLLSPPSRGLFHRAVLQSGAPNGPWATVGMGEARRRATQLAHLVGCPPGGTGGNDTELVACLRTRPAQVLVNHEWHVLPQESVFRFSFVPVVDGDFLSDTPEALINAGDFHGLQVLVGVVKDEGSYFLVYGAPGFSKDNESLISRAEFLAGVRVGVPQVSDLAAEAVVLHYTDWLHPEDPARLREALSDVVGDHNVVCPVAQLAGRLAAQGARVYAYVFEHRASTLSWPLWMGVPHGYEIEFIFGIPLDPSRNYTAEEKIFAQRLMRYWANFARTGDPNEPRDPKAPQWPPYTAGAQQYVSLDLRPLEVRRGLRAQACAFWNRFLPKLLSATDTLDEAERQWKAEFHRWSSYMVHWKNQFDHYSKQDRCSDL

Data set [4] can be described thus: Metal chelating activity assessed as Fe3+-compound complex formation at 300 uM measured for 30 mins by MS-MS analysis.
Data set [5] concerns the target Cholinesterase (Equus caballus) (UniProt P81908). The experiment in a line: Mixed-type inhibition of […] equine serum BuChE at 7.5 to 30 uM using butyryl thiocholine iodide as substrate preincubated for 30 mins followed by substrate addition and measured after 30 mins by Lineweaver-burk plot analysis. As to conditions: dose 7.5-30 µM, time 60.0 min. The format is cell-free.

Data set [6] is described as follows: Antioxidant activity assessed as DPPH radical scavenging activity incubated for 25 mins in shaker. The format is functional. On the technique in general: Loss of DPPH colour is used to gauge radical scavenging.
Data set [7] concerns the target Cholinesterase (Equus caballus) (UniProt P81908). The experiment in a line: Inhibition of […] equine serum BuChE at 20 uM using butyryl thiocholine iodide as substrate preincubated for 30 mins followed by substrate addition and measured after 30 mins by spectrophotometry based Ellman's method relative to control. The format is cell-free. The conditions noted are these: time 60.0 min.

Data set [8] is described as follows: Acute toxicity in Swiss albino mouse assessed as abnormal behaviour at 500 mg/kg, po administered once and observed for 14 days. The conditions noted are these: in vivo, 336 h, time 14 day. The format is organism-based.
Data set [9] relates to Mus musculus. As to the kind of experiment: Memory enhancement effect in scopolamine-induced Swiss albino mouse model of amnesia assessed as increase in spontaneous alteration at 6.25 to 25 mg/kg, po administered for 7 days and observed after 30 mins before scopolamine treatment and measured after 15 mins by Y-maze test. In kind it is functional, organism-based. As to conditions: dose 6.25-25 mg/kg, time 7.0 day.

Data set [10] is described as follows: Acute toxicity in Swiss albino mouse assessed as organism death at 500 mg/kg, po administered once and observed for 14 days. In kind it is organism-based. As to conditions: in vivo, 336 h, time 14 day.
The species named for a further data set is Homo sapiens. As to the kind of experiment: Disruption of human amyloid beta 1 to 42 assessed as effect on amyloid beta 1 to 42 morphology at 1.58 uM incubated for 10 days by atomic force microscopic analysis. The conditions noted are these: time 10.0 day.
A short description of data set [11]: Acute toxicity in Swiss albino mouse assessed as effect on food consumption at 500 mg/kg, po administered once and observed for 14 days. In kind it is organism-based. As to conditions: in vivo, 336 h, time 14 day.
Data set [12] in a line: Cytotoxicity against human SH-SY5Y cells assessed as reduction in cell viability at 20 uM incubated for 24 hrs by MTT assay. In kind it is cell-based. As to conditions: read-out: INH. (In general: Tetrazolium assays rely on reduction of a dye to a coloured formazan, in cell work by metabolically active cells.)
In data set [13] the test system is Mus musculus. As to the kind of experiment: Ex vivo antioxidant activity in brain of scopolamine-induced Swiss albino mouse model of amnesia assessed as increase in CAT level at 6.25 to 25 mg/kg, po administered for 7 days and observed after 30 mins before scopolamine treatment and measured after 15 mins. In kind it is functional, organism-based. The conditions noted are these: dose 6.25-25 mg/kg, time 7.0 day.

Data set [14] deals with Mus musculus. The experiment in a line: Ex vivo antioxidant activity in brain of scopolamine-induced Swiss albino mouse model of amnesia assessed as decrease in MDA level at 6.25 to 25 mg/kg, po administered for 7 days and observed after 30 mins before scopolamine treatment and measured after 15 mins. The format is functional, organism-based. The conditions noted are these: dose 6.25-25 mg/kg, time 7.0 day.

Data set [15] has as its system Mus musculus. The experiment in a line: Ex vivo inhibition of BChE in brain of scopolamine-induced Swiss albino mouse model of amnesia at 6.25 to 25 mg/kg, po administered for 7 days and observed after 30 mins before scopolamine treatment and measured after 15 mins using butyryl thiocholine iodide as substrate by Ellman's method. The format is functional, organism-based. The conditions noted are these: dose 6.25-25 mg/kg, time 7.0 day.

A short description of data set [16]: Acute toxicity in Swiss albino mouse assessed as effect on water consumption at 500 mg/kg, po administered once and observed for 14 days. The conditions noted are these: in vivo, 336 h, time 14 day. In kind it is organism-based.
A short description of data set [17]: Antioxidant activity assessed as DPPH radical scavenging activity at 20 uM incubated for 25 mins in shaker relative to control. In kind it is functional.
A further data set concerns the target Cholinesterase (Equus caballus, UniProt P81908). The experiment in a line: Inhibition of […] equine serum BuChE using butyryl thiocholine iodide as substrate preincubated for 30 mins followed by substrate addition and measured after 30 mins by spectrophotometry based Ellman's method. In kind it is cell-free.
The nature of data set [18]: Acute toxicity in Swiss albino mouse assessed as effect on body weight at 500 mg/kg, po administered once and observed for 14 days. In kind it is organism-based. The conditions noted are these: in vivo, 336 h, time 14 day.
Data set [19] deals with Mus musculus. The experiment in a line: Memory enhancement effect in scopolamine-induced Swiss albino mouse model of amnesia assessed as effect on total arm entries at 6.25 to 25 mg/kg, po administered for 7 days and observed after 30 mins before scopolamine treatment and measured after 15 mins by Y-maze test. The format is functional, organism-based. As to conditions: dose 6.25-25 mg/kg, time 7.0 day.

Data set [20] has as its system Mus musculus. The experiment in a line: Ex vivo antioxidant activity in brain of scopolamine-induced Swiss albino mouse model of amnesia assessed as increase in SOD level at 6.25 to 25 mg/kg, po administered for 7 days and observed after 30 mins before scopolamine treatment and measured after 15 mins. In kind it is functional, organism-based. The conditions noted are these: dose 6.25-25 mg/kg, time 7.0 day.

The nature of data set [21]: Metal chelating activity assessed as Fe3+-compound complex formation at 300 uM measured for 30 mins by UV-Visible spectrophotometric method.
The target of data set [22] is T1, Acetylcholinesterase. The experiment in a line: Inhibition of recombinant human erythrocyte AChE using acetylthiocholine iodide as substrate preincubated for 30 mins followed by substrate addition and measured after 30 mins by spectrophotometry based Ellman's method.

Activity calls are given as the source filed them. The calls are words filed in the database; no cut-off is given here.

Chain of Cholinesterase (Equus caballus) (P81908 whole entry): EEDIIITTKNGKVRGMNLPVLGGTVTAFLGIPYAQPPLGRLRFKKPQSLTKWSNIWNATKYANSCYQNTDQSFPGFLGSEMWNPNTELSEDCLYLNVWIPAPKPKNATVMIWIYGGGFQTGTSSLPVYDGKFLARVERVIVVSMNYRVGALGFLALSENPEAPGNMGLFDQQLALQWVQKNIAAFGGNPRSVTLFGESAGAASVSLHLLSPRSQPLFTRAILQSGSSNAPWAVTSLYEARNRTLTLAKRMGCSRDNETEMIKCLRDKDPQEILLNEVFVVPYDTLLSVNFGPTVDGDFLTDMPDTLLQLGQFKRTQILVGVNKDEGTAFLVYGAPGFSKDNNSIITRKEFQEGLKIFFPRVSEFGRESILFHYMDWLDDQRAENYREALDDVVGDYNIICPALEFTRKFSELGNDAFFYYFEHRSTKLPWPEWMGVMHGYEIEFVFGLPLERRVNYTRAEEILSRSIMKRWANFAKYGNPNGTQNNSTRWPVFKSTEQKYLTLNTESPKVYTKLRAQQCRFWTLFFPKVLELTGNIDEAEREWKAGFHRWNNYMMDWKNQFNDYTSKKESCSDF
Chain of Cholinesterase (P81908 whole entry): as above

A word on the inhibition: it is how much of the control response was suppressed. Usually IC50 stands for the concentration at which inhibition is half-maximal. With `COc1cc(/C=C/C(=O)NCC(=O)Nc2ccc3[nH]ccc3c2)ccc1O`, the Activity entry in [1] is “Non-Toxic”; in data set [8], “Non-Toxic”; in [10], “Non-Toxic”; in [11] it was “Non-Toxic”; in data set [16] it was “Non-Toxic”; in data set [17] it was 31.3%. In data set [18], the Activity result is reported as “Non-Toxic”. In addition, the result (with Mus musculus [2]; in data set [4]; in the data set on Mus musculus [9]; in the data set listed under Homo sapiens; with Mus musculus [13]; in the data set with Mus musculus [14]) was Active. The result (in the data set with Mus musculus [15]; in the data set on Mus musculus [19]; in the data set on Mus musculus [20]; in data set [21]) was Active. The inhibition result (at Acetylcholinesterase [3]; in [5]) was “Active” in each case. The IC50 in data set [6] is 57.4 µM; at Cholinesterase, 14 µM; at Acetylcholinesterase [22] it was 5.74 µM. Further, the inhibition in [7] came to 58.7%. Besides, in data set [12], the cytotoxicity at 24 h, 20 µM was 4.39%.
